≈ marks a conversion by molar mass, not a printed value. Read-outs that look alike come from different tables or passages of the source.
Assays:
[1] = system: microorganisms with acquired resistance; assay: microbe, parasite or virus in culture
P. aeruginosa = assay type: cell-based
[2] = system: inherently resistant microorganisms
[3] = system: microorganisms with acquired resistance
E. coli strain ML-35 = assay type: cell-based; conditions: for ONPG hydrolysis diminished: cells pre-incubated with vancomycin, compared to no pre-incubation
[4] = assay type: biochemical
[5] = system: MSSA (Smith, ATCC #19640); assay type: in vivo, S. aureus; conditions: formulation D
MRSA (ATCC #33591) = assay type: in vivo, S. aureus; conditions: for Percentage of Animals Surviving, Treatment: MRSA ip infection in mice, iv in formulation D, protocol not named in table (1 mg/kg (20 min)); for survival: iv
[6] = system: S. epidermidis (ATCC #12228); conditions: in vivo, iv
bacterial isolates = conditions: S. aureus 19 MRSA
[7] = S. aureus MRSA 13, pair Mupirocin / MBI 10CN
[8] = S. aureus MRSA 17, pair Mupirocin / MBI 10CN, first line
[9] = E. coli ATCC 25922, agarose dilution assay
[10] = E. coli NCTC 10418, agarose dilution assay
[11] = E. faecium ATCC 29212, agarose dilution assay
[12] = P. aeruginosa ATCC 27853, agarose dilution assay
[13] = P. aeruginosa NCTC 10662, agarose dilution assay
[14] = S. aureus MRSA9, agarose dilution assay
[15] = S. aureus MRSA13, agarose dilution assay
[16] = S. aureus MRSA17, agarose dilution assay
[17] = S. marcescens SM82, agarose dilution assay
[18] = S. pneumoniae 406LE8, agarose dilution assay
[19] = S. pneumoniae 60120, agarose dilution assay
[20] = S. pneumoniae ATCC 49619, agarose dilution assay

CC1(C)S[C@@H]2[C@H](NC(=O)[C@H](N)c3ccccc3)C(=O)N2[C@H]1C(=O)O [Ampicillin]
MIC ([1]; Staphylococcus haemolyticus, read-out: MIC alone, S. haemolyticus SH8459, pair Ampicillin / MBI 26): 0.5 µg/mL (≈ 1.43 µM)
MIC ([1]; Staphylococcus haemolyticus, read-out: MIC alone, S. haemolyticus SH8564, pair Ampicillin / MBI 26): 64 µg/mL (≈ 183 µM)
MIC ([1]; Staphylococcus haemolyticus, read-out: MIC alone, S. haemolyticus SH8575, pair Ampicillin / MBI 26): 0.5 µg/mL (≈ 1.43 µM)
MIC ([1]; Staphylococcus haemolyticus, read-out: MIC alone, S. haemolyticus SH8578, pair Ampicillin / MBI 26): 0.5 µg/mL (≈ 1.43 µM)

CO/N=C(\C(=O)N[C@@H]1C(=O)N2C(C(=O)O)=C(CSc3nc(=O)c(=O)[nH]n3C)CS[C@H]12)c1csc(N)n1 [Ceftriaxone]
MIC in combination (P. aeruginosa; P. aeruginosa PA008, pair Ceftriaxone / MBI 26): 8 µg/mL
MIC in combination (P. aeruginosa; P. aeruginosa PA039, pair Ceftriaxone / MBI 11J02CN): 1 µg/mL
MIC in combination ([2]; S. maltophilia SMA021, pair Ceftriaxone / MBI 11B7CN): 1 µg/mL
MIC in combination ([2]; S. maltophilia SMA021, pair Ceftriaxone / MBI 26): 1 µg/mL
MIC in combination ([2]; S. maltophilia SMA023, pair Ceftriaxone / MBI 11B7CN): 8 µg/mL

COc1cccc(OC)c1C(=O)N[C@@H]1C(=O)N2[C@@H]1SC(C)(C)[C@@H]2C(=O)O [Methicillin]
MIC ([1]; Staphylococcus aureus, read-out: MIC alone, S. aureus SA7796, pair Methicillin / MBI 31): 16 µg/mL (≈ 42.1 µM)
MIC ([1]; Staphylococcus aureus, read-out: MIC alone, S. aureus SA7797, pair Methicillin / MBI 31): 16 µg/mL (≈ 42.1 µM)
MIC ([1]; Staphylococcus aureus, read-out: MIC alone, S. aureus SA7818, pair Methicillin / MBI 26): 16 µg/mL (≈ 42.1 µM)
MIC ([1]; Staphylococcus aureus, read-out: MIC alone, S. aureus SA7823, pair Methicillin / MBI 31): 16 µg/mL (≈ 42.1 µM)
MIC ([1]; Staphylococcus aureus, read-out: MIC alone, S. aureus SA7834, pair Methicillin / MBI 26): 32 µg/mL (≈ 84.1 µM)
MIC ([1]; Staphylococcus aureus, read-out: MIC alone, S. aureus SA7834, pair Methicillin / MBI 31): 64 µg/mL (≈ 168 µM)
MIC ([1]; Staphylococcus aureus, read-out: MIC alone, S. aureus SA7835, pair Methicillin / MBI 26): 32 µg/mL (≈ 84.1 µM)
MIC ([1]; Staphylococcus aureus, read-out: MIC alone, S. aureus SA7835, pair Methicillin / MBI 31): 64 µg/mL (≈ 168 µM)
MIC comb. ([3]; S. aureus SA7796, pair Methicillin / MBI 31): 2 µg/mL (≈ 5.26 µM)
MIC comb. ([3]; S. aureus SA7797, pair Methicillin / MBI 31): 2 µg/mL (≈ 5.26 µM)
MIC comb. ([3]; S. aureus SA7818, pair Methicillin / MBI 26): 4 µg/mL (≈ 10.5 µM)
MIC comb. ([3]; S. aureus SA7823, pair Methicillin / MBI 31): 2 µg/mL (≈ 5.26 µM)
MIC comb. ([3]; S. aureus SA7834, pair Methicillin / MBI 26): 8 µg/mL (≈ 21 µM)
MIC comb. ([3]; S. aureus SA7834, pair Methicillin / MBI 31): 1 µg/mL (≈ 2.63 µM)
MIC comb. ([3]; S. aureus SA7835, pair Methicillin / MBI 26): 4 µg/mL (≈ 10.5 µM)
MIC comb. ([3]; S. aureus SA7835, pair Methicillin / MBI 31): 2 µg/mL (≈ 5.26 µM)

C/C(=C\C(=O)OCCCCCCCCC(=O)O)C[C@@H]1OC[C@H](C[C@@H]2O[C@H]2[C@@H](C)[C@H](C)O)[C@@H](O)[C@H]1O [Mupirocin]
MIC in combination (P. aeruginosa; P. aeruginosa PA2, pair Mupirocin / MBI 27): 0.1 µg/mL
MIC in combination (P. aeruginosa; P. aeruginosa PA2, pair Mupirocin / MBI 29A3): 0.1 µg/mL
MIC in combination (P. aeruginosa; P. aeruginosa PA3, pair Mupirocin / MBI 29A3): 0.1 µg/mL
MIC in combination (P. aeruginosa; P. aeruginosa PA4, pair Mupirocin / MBI 27): 0.3 µg/mL
MIC in combination (P. aeruginosa; P. aeruginosa PA4, pair Mupirocin / MBI 29A3): 0.1 µg/mL
MIC in combination (P. aeruginosa; P. aeruginosa SBPA2, pair Mupirocin / MBI 29A3): 0.1 µg/mL
MIC comb. [3, 7]: 3 µg/mL (≈ 5.99 µM)
MIC comb. [3, 8]: 1 µg/mL (≈ 2 µM)
MIC comb. ([3]; S. aureus MRSA 17, pair Mupirocin / MBI 11G13CN): 1 µg/mL (≈ 2 µM)
MIC in combination ([2]; E. coli SBECO1, pair Mupirocin / MBI 28): 0.1 µg/mL

NC[C@H]1O[C@H](O[C@H]2[C@H](O)[C@@H](O[C@H]3O[C@H](CO)[C@@H](O)[C@H](N)[C@H]3O)[C@H](N)C[C@@H]2N)[C@H](N)C[C@@H]1O [Tobramycin]
MIC ([1]; Stenotrophomonas maltophilia, read-out: MIC alone, S. maltophilia 041, pair Tobramycin / MBI 29): 16 µg/mL (≈ 34.2 µM)
MIC comb. ([3]; S. maltophilia 037, pair Tobramycin / MBI 29): 4 µg/mL (≈ 8.56 µM)

I L K K W P W W P W R R K [MBI 11CN]
ONPG hydrolysis diminished (E. coli strain ML-35): approximately 50%
membrane permeabilizing activity (ANTS/DPX dye release) [4]: virtually abolishes membrane permeabilizing activity
survival (mice rescued) ([5]; ip 35.7 mg/kg, 60 minutes post-infection, 8 days): 100%
activity at lower dose levels ([5]; ip below 35.7 mg/kg): little or no activity
MIC (bacteria; [9]): 16 µg/mL
MIC (bacteria; [10]): 4 µg/mL
MIC (bacteria; [11]): 8 µg/mL
MIC (bacteria; [12]): >128 µg/mL
MIC (bacteria; [13]): >128 µg/mL
MIC (bacteria; [14]): 2 µg/mL
MIC (bacteria; [15]): 16 µg/mL
MIC (bacteria; [16]): 4 µg/mL
MIC (bacteria; [17]): >128 µg/mL
MIC (bacteria; [18]): >128 µg/mL
MIC (bacteria; [19]): >128 µg/mL
MIC (bacteria; [20]): 64 µg/mL
Percentage of Animals Surviving, Treatment (MRSA (ATCC #33591); 6 hours post-infection): 70%
Percentage of Animals Surviving, Treatment (MRSA (ATCC #33591); 10 hours post-infection): 30%
survival (MRSA (ATCC #33591); 1 mg/kg (20 min) protocol, injections 5 minutes apart): delayed the death of the mice to a significant extent
survival (MRSA (ATCC #33591); 5 mg/kg and 1 mg/kg (2 hr) protocols, injections 1 hour apart): no improvement in survivability over the negative control
survival of mice [6]: prolongs the survival of the mice
FIC ([3]; peptide + Tobramycin, S. maltophilia SMA030): 9.27

I L P W K W P W W P W R R [MBI 10CN]
ONPG hydrolysis diminished (E. coli strain ML-35): approximately 50%
MIC (bacteria; A. calcoaceticus AC001): 64 µg/mL
MIC (bacteria; E. cloacae ECL007): >128 µg/mL
MIC (bacteria; [9]): 16 µg/mL
MIC (bacteria; E. coli ECO001): 32 µg/mL
MIC (bacteria; [10]): 8 µg/mL
MIC (bacteria; E. coli SBECO2): 16 µg/mL
MIC (bacteria; E. faecalis EFS004): 8 µg/mL
MIC (bacteria; [11]): 4 µg/mL
MIC (bacteria; E. faecium EFM003): 2 µg/mL
MIC (bacteria; K. pneumoniae KP002): 64 µg/mL
MIC (bacteria; [12]): >128 µg/mL
MIC (bacteria; [13]): >128 µg/mL
MIC (bacteria; P. aeruginosa PA002): >128 µg/mL
MIC (bacteria; [14]): 1 µg/mL
MIC (bacteria; [15]): 4 µg/mL
MIC (bacteria; [16]): 2 µg/mL
MIC (bacteria; S. aureus SA003): 2 µg/mL
MIC (bacteria; S. epidermidis SE010): 4 µg/mL
MIC (bacteria; S. maltophilia SMA002): 64 µg/mL
MIC (bacteria; [17]): >128 µg/mL
MIC (bacteria; S. marcescens SMS004): >128 µg/mL
MIC (bacteria; [18]): >128 µg/mL
MIC (bacteria; [19]): 64 µg/mL
MIC (bacteria; [20]): 32 µg/mL
Peptide MIC [3, 7]: 4 µg/mL
Peptide MIC [3, 8]: 1 µg/mL
Peptide MIC ([3]; S. aureus MRSA 17, pair Mupirocin / MBI 10CN, second line): 2 µg/mL

I L R W P W W P W R R K [MBI 11B7CN]
membrane permeabilizing activity (E. coli strain ML-35; peptide pre-incubated with 150 mM NaCl or 5 mM Mg2+): significant inhibition
FIC (bacterial isolates; Piperacillin + peptide): 0.50
Peptide MIC + Piperacillin (bacterial isolates): 1 µg/mL
Peptide MIC Alone (bacterial isolates): 4 µg/mL
Piperacillin MIC + Peptide (bacterial isolates): 32 µg/mL
FIC (P. aeruginosa; P. aeruginosa PA008, pair Ceftriaxone / MBI 11B7CN): 9.50

— patent US6503881B2 (priority 1996, dated 2003)
